This note sets out measurements from the METLIN SMRT retention time set (Domingo-Almenara et al. 2019).

This data set in a line: gradient 5% acetonitrile 3 min, to 50% in 2 min, to 85% in 15 min, held 3 min, 100 µL/min. The settings on record: column: Zorbax Extend-C18 2.1 x 50 mm; eluents: water / acetonitrile, 0.1% formic acid. The procedure, abridged:
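Retention time was recorded from adduct peaks, which were picked computationally and each inspected manually. Pure standards ran in mixtures of ~100 molecules on HPLC coupled to a quadrupole time-of-flight mass spectrometer, in positive and negative ionization mode, through a Zorbax Extend-C18 column (2.1 × 50 mm, 1.8 μm) at 100 μL/min. Eluents were water and acetonitrile, each with 0.1% formic acid.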
Regarding `CN(C)c1ccc(-c2noc(C3CC(=O)N(c4ccc5c(c4)OCCO5)C3)n2)cc1` (centres undefined), the RP-LC retention time was found to be 920 s.
Compound `CSc1ccc(CNC(=O)CCCn2nc(-n3cccc3)c3c(C)cc(C)nc32)cc1` registered an RP-LC retention time of 1030 s.
Compound `Cc1cccc(NC(=O)Cc2cn3cc(F)ccc3n2)c1C` displayed an RP-LC retention time of 600 s.
`CC(C)N(C(=O)Cn1c(CN(C)C(=O)c2ccco2)nc2ccccc21)c1ccccc1` yielded an RP-LC retention time of 725 s.
Take `Cc1ccc(S(=O)(=O)N2CCC(C(=O)N3CCCC3c3nc(-c4ccccc4C)no3)CC2)cc1` (centres undefined): the RP-LC retention time stood at 1090 s.
With `Cc1nnc(C2CCCN(C(=O)c3ccccc3Cl)C2)s1` (centres undefined), the RP-LC retention time stood at 652 s.
Take `Fc1ccccc1-c1noc(-c2nc(-c3ccccc3F)no2)n1`: the RP-LC retention time amounted to 1140 s.
For `COc1cccc2cc(C(=O)Nc3ccc(-c4ccc(N5CCCC5)nn4)cc3)oc12`, the RP-LC retention time was determined as 607 s.
With `Cc1ccc(NC(=O)Cn2c(=O)n(-c3ccc(F)cc3)c3ncccc32)c(C)c1`, the RP-LC retention time turned out to be 875 s.
Turning to `CCc1cc2c3c([nH]c2cc1S(=O)(=O)N1CCN(c2ccccn2)CC1)CC(C)(C)CC3=O`, the RP-LC retention time came to 695 s.
Consider `Cc1cc(CN2CCC(CNC(=O)C(=O)NCCC3=CCCCC3)CC2)c(C)o1`, for which the RP-LC retention time was found to be 607 s.
Regarding `COc1ccc(NC(=O)Cn2c(=O)c3cc(-c4cccs4)nn3c3ncccc32)cc1`, the RP-LC retention time was found to be 810 s.
`CCn1ccc2sc(C)c(C(=O)NCc3cccc(C)c3)c2c1=O` returned an RP-LC retention time of 850 s.
`Cc1cccc(N2C(=O)CN(S(C)(=O)=O)CC2(C)C(=O)NCc2ccc(F)cc2)c1C` (centres undefined) showed an RP-LC retention time of 809 s.
In the case of `Cc1cccc(N2CCN(C(=O)c3c(C)sc4ccn(C)c(=O)c34)CC2)c1`, the RP-LC retention time was found to be 769 s.
For the compound `CCOC(=O)N1CCC(c2nnc(Cc3ccc(OC)cc3)s2)CC1`, the RP-LC retention time was found to be 788 s.
Take `Cc1ccc2nc(-c3ccc(N4CCOCC4)cc3)c(Nc3ccc4c(c3)OCO4)n2c1`: the RP-LC retention time amounted to 690 s.
`O=C(C1COc2ccccc2O1)N1CC(n2ccnc2)C1` (centres undefined): the RP-LC retention time was found to be 594 s.
Regarding `Cc1ccsc1C(=O)NCC12CCCC=C1N(CC1CC1)C(=O)CC2` (centres undefined), the RP-LC retention time worked out at 904 s.
As for `O=C1OCC/C1=C\OCCCO/C=C1\CCOC1=O`, the RP-LC retention time is 716 s.
In turn, `O=C(NCc1ccccc1)C1CCc2nc(N3CCOCC3)ncc2C1` (centres undefined) registered an RP-LC retention time of 696 s.
As to `Cc1ncc2c(n1)C[C@@H]1CC[C@H]2N1C(=O)Nc1ccc(F)cc1F`, the RP-LC retention time was 649 s.
Turning to `O=C(CC1CCCCC1)Nc1cccc(-c2nnc3n2CCCC3)c1`, the RP-LC retention time is 731 s.
`O=C(NCCc1ccccn1)C1CC(=O)N(c2n[nH]c3cc(Br)ccc23)C1` (centres undefined) displayed an RP-LC retention time of 600 s.
As for `Cc1ccc(F)c(NC(=O)c2nc3nc(C)cc(C(F)F)n3n2)c1`, the figure is 846 s.
The compound `O=C(NCCCN1CCOCC1)C1CCCN(c2cnc3nccnc3c2)C1` (centres undefined) returned an RP-LC retention time of 565 s.
In the case of `CC1CCN(S(=O)(=O)c2ccc(-c3nnc(C(=O)NC4CCCCC4)o3)cc2)CC1` it was 1120 s.
Compound `CCS(=O)(=O)N1CC(=O)N(c2ccccc2C)C(C)(C(=O)NCc2ccccc2)C1` (centres undefined) yielded an RP-LC retention time of 802 s.
On to `Cc1ccccc1-c1nc(-c2ccc3c(c2)nc(C)c(=O)n3C)no1`, for which the RP-LC retention time was 1120 s.
As for `Cc1cc(S(=O)(=O)N2CCC(n3c(-c4ccoc4)nc4cccnc43)C2)ccc1F` (centres undefined), the figure is 827 s; as for `Cc1cc(C)n2c(Nc3ccccc3)c(-c3ccc(Br)cc3O)nc2n1`, 1120 s.
The compound `CCc1cc(C(=O)Nc2cc(F)ccc2C)nc2ccnn12` yielded an RP-LC retention time of 1090 s.
In the case of `COCCNC(=O)CCc1cn(Cc2ccccc2C)c2ccccc12`, the RP-LC retention time was determined as 919 s.
As for `O=C(c1cc(-c2ccccc2Cl)nc2ccccc12)N1CCN(c2ccccn2)CC1`, the RP-LC retention time was found to be 676 s.
As for `CN(C)S(=O)(=O)c1ccc(-c2nnc(C(=O)NCc3ccccc3)o2)cc1`, the figure is 831 s; as for `CC(Oc1ccc(F)cc1)C(=O)Nc1ccc(-c2nc(-c3ccc(F)cc3)no2)cc1` (centres undefined), 1290 s; as for `CCn1ccc(C(=O)N2CCc3cc(-c4csc(C5CC5)n4)ccc32)n1`, 1050 s.
`Cc1sc(-c2nc(-c3cccc(F)c3)no2)cc1S(=O)(=O)N1CCN(c2ccccn2)CC1` displayed an RP-LC retention time of 959 s.
In the case of `Cn1c(=O)n(C)c2cc(S(=O)(=O)c3ccc(F)cc3)c(NC(=O)Cc3cccc(F)c3)cc21` it was 873 s; in that of `CC(C)n1c(N2CCCN(C(=O)c3ccc(F)c(F)c3)CC2)cc(=O)n(C(C)C)c1=O`, 859 s; in that of `COC(=O)C1=CN(c2ccc(OC)c(Cl)c2)c2ccccc2S1(=O)=O`, 856 s.
In turn, `O=C(NC1CC1)[C@@H]1C[C@H](Oc2ccccc2)CN1C(=O)C1CC=CC1` had an RP-LC retention time of 755 s.
`Cn1ccc2cc(CCC(=O)N3CCCC3)ccc21` showed an RP-LC retention time of 789 s.
In the case of `COc1ccc(NC(=O)CSc2nc3nc(C)cc(C)n3n2)cc1OC` it was 652 s; in that of `Cc1ccc(C2=NC3(CCN(C(=O)c4ccn[nH]4)CC3)ON2)cc1`, 680 s; in that of `CSc1ccc(-c2nc3ncccn3c2Nc2cccc(Cl)c2C)cc1`, 968 s.
In the case of `Clc1ccc2nc(Nc3ncccn3)nc(-c3ccccc3)c2c1` it was 747 s.
`COC(=O)c1c(C)[nH]c(C(=O)N2CCC(CC(=O)NCc3cccc(Br)c3)CC2)c1C` had an RP-LC retention time of 800 s.
`CCN1CCCC1CNC(=O)c1cc(S(=O)(=O)CC)c(N)cc1OC` (centres undefined): the RP-LC retention time was 591 s.
In the case of `O=C(c1ccc2c(c1)OCO2)N1CCC(N2C[C@H]3C[C@H](C2)[C@H]2CCCC(=O)N2C3)CC1` it was 561 s; in that of `CCCCn1cc(S(=O)(=O)N2CCN(c3cccc(Cl)c3)CC2)c2cccnc21`, 1250 s; in that of `CCCNC(=O)c1cc(-c2ccccc2)cn1CC`, 977 s.
As for `COc1ccc(NC(=O)C2CCN(S(=O)(=O)c3cc(C(=O)N(C)C)cs3)CC2)cc1`, the figure is 730 s; as for `CCOc1ncccc1CNC(=O)c1ccc2nc[nH]c2c1`, 569 s; as for `Cc1nc(N)sc1-c1ccnc(Nc2ccc(N3CCOCC3)cc2)n1`, 624 s.
`CCCC(=O)Nc1ccc(CCc2nc3ccc(C(=O)NC4CCCC4)cc3[nH]2)cc1`: the RP-LC retention time was 650 s.
In turn, `Brc1ccc(-c2ccc(CNCc3ccccn3)o2)cc1` showed an RP-LC retention time of 703 s.
As to `COCCn1cc(C(=O)N2CCCc3ccccc32)c2nn(-c3ccccc3)c(=O)c-2c1`, the RP-LC retention time was determined as 943 s.
`COc1ccc(CCNc2ncnc(N)c2[N+](=O)[O-])cc1OC` yielded an RP-LC retention time of 660 s.
In the case of `CCN(CCCNC(=O)C1CCN(S(=O)(=O)N2CCOCC2)CC1)c1cccc(C)c1`, the RP-LC retention time worked out at 623 s.
`Nc1nc(-c2ccccc2)nn1C(=O)C1CC1` showed an RP-LC retention time of 800 s.
As for `O=C(NCc1ccc(F)cc1)C1CCCN(c2ccc3cc(S(=O)(=O)N4CCCC4)ccc3n2)C1` (centres undefined), the figure is 754 s.
On to `CCn1nccc1-c1cccc(-c2noc(C3(c4ccc(OC)cc4)CC3)n2)c1`, for which the RP-LC retention time came to 1240 s.
In turn, `O=C(CN1C(=O)NC2(CCCCC2)C1=O)Nc1ccc2c(c1)OCCO2` registered an RP-LC retention time of 708 s.
As for `Cc1nc(-c2ccncc2)nc2c1CCC(=O)N2CC1CCCCC1`, the RP-LC retention time turned out to be 918 s.
`Cc1noc(-c2ccc(=O)n(CC(C)C)n2)n1` returned an RP-LC retention time of 761 s.
Take `Cc1ccc(C(CC(=O)NCCCN2CCCC2)N2Cc3ccccc3C2=O)cc1` (centres undefined): the RP-LC retention time worked out at 639 s.
In turn, `COC(=O)c1cccc(NC(=O)c2sc3ncccc3c2-n2cccc2)c1` showed an RP-LC retention time of 1040 s.
Take `Cc1ccc(-c2nc(CN3CCN(C(=O)NC(C)C)CC3)c(C)o2)cc1`: the RP-LC retention time worked out at 592 s.
In turn, `CCCN1C(=O)COc2ccc(-c3csc(NC(=O)c4ccc(C)cc4)n3)cc21` returned an RP-LC retention time of 1080 s.
With `CN1CCN(CCNC(=O)c2ccc3nc(-c4ccc(Cl)cc4)cn3c2)CC1`, the RP-LC retention time amounted to 579 s.
As for `Cc1noc([C@@H]2CN(Cc3c(F)cccc3F)C[C@H]2CO)n1`, the RP-LC retention time came out at 562 s.
For the compound `Cn1c(=O)c2cc(C(=O)NCCCc3ccccc3)sc2n(C)c1=O`, the RP-LC retention time worked out at 765 s.
`CCNC(=O)C1CCN(c2nc3ncn(CC(=O)Nc4ccc(OCC)cc4)c(=O)c3s2)CC1` yielded an RP-LC retention time of 662 s.
`Cc1ccc2c(C(=O)Nc3ccc(N4CCOCC4)cc3)cc(NC(=O)C(C)C)cc2n1` showed an RP-LC retention time of 618 s.
As for `COc1ccc(OC)c(NS(=O)(=O)c2cccs2)c1`, the figure is 777 s; as for `Cc1ccc2c(c1)N(S(C)(=O)=O)CCC(C(=O)N1CCCCC1)O2` (centres undefined), 862 s; as for `CSc1cccc(Nc2c(C(=O)N3CCOCC3)cnc3nc(C)ccc23)c1`, 606 s.
As for `CCc1noc(-c2cnc3nc(C)ccc3c2Nc2cccc(OC)c2)n1`, the figure is 778 s.
